The test system of one data set is AAG. As to conditions: reported; cited from earlier work.
For data set [1] the following is noted: reported; cited from earlier work.
The target in data set [2] is T1, HSA (Homo sapiens, UniProt P02768). Particulars: 1 μM drug + 1 μM DS in HSA; 10 mg DCC bed.
Experimental: Set-Up of Incubation Study. […] Allow samples to sit at room temperature for one hour.
DCC Extraction Procedure; Protein Precipitation Procedure; Final Sample Preparation. Performed as described in Example 1 and 3.
Chemical Analysis. The analysis of DS and the internal standard is conducted with liquid chromatography coupled to mass spectrometry with electrospray ionization. For a given sample, the peak area of the DS and the internal standard are measured and a ratio (PAR) of these two values is determined.
Data set [3] deals with T1, HSA. In words: percent recovery from HSA with the 96-well ACCUPRO DCC device. Type of data set: in vitro ADME. On the procedure: Chemical Analysis. […] For a given sample, the peak areas of the particular drug and its internal standard are measured and a ratio of these two values is determined. The peak area ratio (PAR) of the (+) DCC-extracted sample is divided by its corresponding (−) DCC extracted sample PAR to determine a percent recovery value. This recovery value is not a % HSA bound value.
Preparation of DCC plate. Prepare a DCC filter plate with 5 mg and 10 mg bed sizes as described in Example 1 and 3.
Set-Up of Incubation Study.

Structures are written as SMILES.

T1 sequence (P02768 25-609): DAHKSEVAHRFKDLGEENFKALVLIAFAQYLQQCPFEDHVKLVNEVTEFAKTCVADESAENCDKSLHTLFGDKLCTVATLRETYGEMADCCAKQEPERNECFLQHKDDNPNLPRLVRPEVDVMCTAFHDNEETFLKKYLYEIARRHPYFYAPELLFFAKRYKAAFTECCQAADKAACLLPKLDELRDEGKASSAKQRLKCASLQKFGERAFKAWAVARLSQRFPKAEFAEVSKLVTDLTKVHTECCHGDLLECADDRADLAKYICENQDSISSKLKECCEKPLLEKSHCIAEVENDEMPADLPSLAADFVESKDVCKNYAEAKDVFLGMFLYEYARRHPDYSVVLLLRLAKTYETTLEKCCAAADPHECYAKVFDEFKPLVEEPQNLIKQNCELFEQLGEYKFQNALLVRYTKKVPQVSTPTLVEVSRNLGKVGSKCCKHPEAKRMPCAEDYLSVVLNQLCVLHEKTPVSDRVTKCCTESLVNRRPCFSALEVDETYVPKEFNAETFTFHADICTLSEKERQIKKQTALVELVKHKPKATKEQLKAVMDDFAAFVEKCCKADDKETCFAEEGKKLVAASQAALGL

Regarding `CN(C)CCCN1c2ccccc2Sc2ccc(Cl)cc21` [Chlorpromazine], in the data set on AAG, the “affinity to AAG / HSA” value is “high affinity to AAG and not HSA”. Moreover, the plasma bound in data set [1] is recorded as 95-98%.
As to `O=C(c1ccccc1)c1ccc2n1CCC2C(=O)O` (centres unmarked) [Ketorolac], the “DS (dansylsarcosine) PAR in final sample preparation” value at HSA [2] was “higher PAR”. In addition, the “percent recovery (relative ranking)” value at HSA [3] (HSA, naproxen versus ketorolac) was “lower percent recovery”. Further, on HSA [3] (drug at 1 μM, 5 mg and 10 mg DCC bed, compared with the usual concentrations (217 μM and 0.5 μM)), the “percent recovery from HSA” value is given as “comparable to values obtained above”.

Values taken from US20060019410A1, “Apparatus, kits and methods for evaluating binding interactions, for detecting and quantifying binding molecules, and for sample preparation” (Qualyst, Inc., priority 2004, published 2006).
